Where “and” joins values, the source holds several entries; their conditions need not be identical. Equal values may be shown once. Read-outs that look alike come from different tables or passages of the source.
Columns and labels:
[1] = Acute toxicity after intraperitoneal injection; format: in vivo, C57BL/6 mice; details: 5 mg/kg intraperitoneal, 1% PVP in PBS + 20 mM HEPES, observed 30 mins
Method: To assess acute toxicity, phyllochlorin or chlorin e4 disodium (each prepared with 1% PVP in PBS+20 mM HEPES) were administered at a dose of 5 mg/kg to C57BL/6 mice by intraperitoneal injection.

[2] = test system: SKOV3 ovarian cancer cells; assay: Inherent cytotoxicity (dark toxicity) in SKOV3 cells (AlamarBlue viability); format: cell-based, Human; details: for Concentration at which cells remained >80% viable (dark toxicity) / Concentration at which cells retained >80% viability (dark toxicity): SKOV3, 24 hours; for Concentration at which cells remained >80% viable (dark toxicity): absence of PVP; for Concentration at which cells retained >80% viability (dark toxicity): with addition of PVP
Method: (§1) Human ovarian cancer cell line SKOV3 (ATCC #HTB-77) was maintained in Dulbecco's Modified Eagle Medium/Nutrient Mixture F-12 (DMEM/F-12), supplemented with 10% v/v Fetal Bovine Serum, 100 U/mL penicillin and 100 µg/mL streptomycin. Monolayer cultures were grown in a humidified incubator at 37° C. with 5% CO2.
(§2) For in vitro experiments, photosensitizers (stock solution 5.5 mM in 100% DMSO) were diluted in cell culture media (Dulbecco's Modified Eagle Medium/Nutrient Mixture F-12) supplemented with 10% v/v Fetal Bovine Serum, 100 U/mL penicillin, 100 µg/mL streptomycin and 10% w/v Kollidon-12. Once cells had reached ˜80% confluence, spent media was replaced with media containing photosensitizer and cells were incubated for the desired period of time to allow photosensitizer uptake.
(§3) SKOV3 cells were seeded in 96-well black wall plates (Greiner #655090) at a cell density of 5000 cells in 100 μl culture medium per well. On reaching ˜60% confluence, media was aspirated and replaced with fresh media containing the relevant phyllochlorin analogue from 0-100 μM in DMSO. Cells were incubated for a further 24 hours, allowing uptake of phyllochlorin analogues.
(§4) To test for inherent cytotoxicity (i.e. “dark toxicity”) of the phyllochlorin analogue the culture media was replaced after 24 hours with fresh media containing 10% (v/v) AlamarBlue Cell Viability Reagent (ThermoFisher) and cells incubated at 37° C. for 6 hours. Untreated cells were used as a control. Fluorescence (Ex 555 nm/Em 596 nm) was measured using a Cytation 3 Multimode Plate Reader (Biotek), and cytotoxicity assessed according to the % viable cells remaining. All measurements were made in quadruplicate.
(§5) For comparative purposes, phyllochlorin analogues were tested and compared against both chlorin e4 disodium and Talaporfin sodium, a clinically approved photosensitizer used in the photodynamic treatment of lung cancers. Phototoxicity IC90 values and dark toxicity IC10 values were calculated using a log[inhibitor]-vs normalized response dose curve with variable slope, using the formula Y=100/(1+(IC90/X)^HillSlope (phototoxicity IC90) or Y=100/(1+(IC10/X)^HillSlope (dark toxicity IC10).

[3] = Singlet oxygen (1O2) production rate; format: physicochemical
From the text: The production of singlet oxygen (^1O2), cellular phototoxicity and light-independent cytotoxicity (“dark toxicity”) of a number of phyllochlorin analogues were compared against chlorin e4 disodium and Talaporfin sodium (mono-L-aspartyl chlorin e6), the active ingredient of Laserphyrin™.

[4] = test system: SKOV3 ovarian cancer cells; assay: Phototoxicity in SKOV3 cells (652 nm laser, AlamarBlue viability); format: cell-based, Human; details: for IC50: SKOV3, 652 nm laser, estimated from fitted curves
Method: as §1, §2
as §3, with “confluence, so” for “confluence,”
(§6) To test for phototoxicity, cells incubated with phyllochlorin analogues (0-10 μM in DMSO) had culture media replaced after 24 hours (as above) and were then exposed to a 652 nm laser (Invion) with laser density at 50 mW/cm^2 for 5 mins (total 15 J/cm^2). Following activation, cells were cultured for a further 24 hours. Media was then replaced with fresh media containing AlamarBlue, and % viable cells remaining assessed as above. Controls included cells treated with phyllochlorin analogues but not activated by laser light; cells without phyllochlorin analogue treatment but with laser light; and untreated controls. All measurements were made in quadruplicate.
as §5

OVCAR3 [5] = assay: Cytotoxicity, pan-cancer panel; format: cell-based; details: OVCAR3, ovarian adenocarcinoma
Method: as §4
(§7) The activity of phyllochlorin analogues against multiple cancer cell types was assessed as above, using compounds 3 and 6 as examples.

HEK293 [6] = assay: Cytotoxicity, pan-cancer panel; format: cell-based; details: HEK293, embryonic kidney
Method: as §4, §7

A549 [7] = assay: Cytotoxicity, pan-cancer panel; format: cell-based; details: A549, lung adenocarcinoma
Method: as §4, §7

MDA-MB-468 [8] = assay: Cytotoxicity, pan-cancer panel; format: cell-based; details: MDA-MB-468, breast adenocarcinoma (triple negative)
Method: as §4, §7

CaOV3 [9] = assay: Cytotoxicity, pan-cancer panel; format: cell-based; details: CaOV3, ovarian adenocarcinoma
Method: as §4, §7

DLD-1 [10] = assay: Cytotoxicity, pan-cancer panel; format: cell-based; details: DLD-1, colorectal adenocarcinoma
Method: as §4, §7

LP9 [11] = assay: Cytotoxicity, pan-cancer panel; format: cell-based; details: LP9, immortalised mesothelial cells
Method: as §4, §7

HH [12] = assay: Cytotoxicity, pan-cancer panel; format: cell-based; details: T cell lymphoma
Method: as §4, §7

OVCAR3 [13] = assay: Phototoxicity, pan-cancer panel; format: cell-based; details: Homo sapiens, OVCAR-3, light or radiation study; OVCAR3, ovarian adenocarcinoma
Method: as §6, §7

HEK293 [14] = assay: Phototoxicity, pan-cancer panel; format: cell-based; details: Homo sapiens, light or radiation study; HEK293, embryonic kidney
Method: as §6, §7

A549 [15] = assay: Phototoxicity, pan-cancer panel; format: cell-based; details: Homo sapiens, light or radiation study; A549, lung adenocarcinoma
Method: as §6, §7

MDA-MB-468 [16] = assay: Phototoxicity, pan-cancer panel; format: cell-based; details: Homo sapiens, light or radiation study; MDA-MB-468, breast adenocarcinoma (triple negative)
Method: as §6, §7

CaOV3 [17] = assay: Phototoxicity, pan-cancer panel; format: cell-based; details: Homo sapiens, Caov-3, light or radiation study; CaOV3, ovarian adenocarcinoma
Method: as §6, §7

DLD-1 [18] = assay: Phototoxicity, pan-cancer panel; format: cell-based; details: Homo sapiens, light or radiation study; DLD-1, colorectal adenocarcinoma
Method: as §6, §7

LP9 [19] = assay: Phototoxicity, pan-cancer panel; format: cell-based; details: light or radiation study; LP9, immortalised mesothelial cells
Method: as §6, §7

HH [20] = assay: Phototoxicity, pan-cancer panel; format: cell-based; details: Homo sapiens, light or radiation study, T cell lymphoma
Method: as §6, §7

[21] = Estimated pKa of the carboxylic acid; format: physicochemical
From the text: As PBS buffer (pH 7.4) is used in the experiments and the carboxylic acid in phyllochlorin (and the same carboxy group in other related chlorins) is estimated to have a pKa of less than 5, phyllochlorin in the PBS buffer will exist predominantly as the sodium and potassium salts with very little to no free acid.

[22] = Solubility and absorbance maxima (absorbance spectra in DMSO/PBS, with or without PVP); format: physicochemical
Method: Absorbance maxima (660±2 nm for phyllochlorin) were used as a surrogate measure of solubility. The relevant phyllochlorin analogue was diluted to 50 μM in PBS (phosphate buffered saline) solutions containing decreasing amounts of DMSO from 100% to 0%.
Where required, polyvinylpyrrolidone (K30) was added to a final concentration of 1% w/v. Absorbance was measured using a Cytation 3 Multimode Plate Reader (Biotek) in spectral scanning mode, with spectra captured between 500-800 nm in 2 nm increments. Equivalent blank solutions were also measured and subtracted accordingly. Each spectrum was normalized to have a minimum signal of 0, and a maximum signal in pure DMSO solution (the most soluble state) of 100%.
The solubility of phyllochlorin was assessed in solutions containing DMSO as an organic solvent. Phyllochlorin (50 μM final concentration) was resuspended in 100% DMSO to fully dissolve the phyllochlorin. With phyllochlorin concentrations maintained at 50 μM the % DMSO was decreased in a stepwise manner from 100% to 0%. All solutions were mixed by vortexing, then centrifuged for 2 mins to pellet any insoluble material. A 150 μl aliquot was transferred to individual wells of a 96-well clear microplate, and absorbance spectra collected between 500-800 nm in 2 nm increments. Equivalent solutions containing decreasing % DMSO were used to control for background.

[23] = SKOV3, 24 h incubation, no light
[24] = SKOV3, 24 h uptake, 652 nm laser 50 mW/cm2 5 mins (15 J/cm2), viability 24 h later, read-out: Cellular Toxicity: Phototoxicity IC90

C=Cc1c(C)c2cc3nc(c(C)c4[nH]c(cc5nc(cc1[nH]2)C(C)=C5CC)c(C)c4C(=O)O)[C@@H](CCC(=O)O)[C@@H]3C [Chlorin e4 disodium, chlorin e4 disodium, reference compound]
Side effects (clinical signs of acute toxicity) [1]: No side effects were noted | Concentration at which cells remained >80% viable (dark toxicity) [2]: up to 80 μM | Concentration at which cells retained >80% viability (dark toxicity) [2]: 100 µM | Cellular Toxicity: Dark toxicity IC10 [2, 23]: 40230 nM | Singlet Oxygen Production (slope) 1O2 [3]: 998.2 | IC50 ([4]; absence of PVP): 4530 nM | IC50 ([4]; with addition of PVP): 1350 nM | IC90 [4, 24]: 21300 nM

C=Cc1c(C)c2cc3nc(c(C)c4cc(C)c(cc5nc(cc1[nH]2)C(C)=C5CC)[nH]4)[C@@H](CCC(=O)NCCCS[C@@H]1O[C@H](CO)[C@@H](O)[C@H](O)[C@H]1O)[C@@H]3C [Compound 3, 3-((7S,8S)-18-ethyl-2,5,8,12,17-pentamethyl-13-vinyl-7H,8H-porphyrin-7-yl)-N-(3-(((2S,3R,4S,5S,6R)-3,4,5-trihydroxy-6-(hydroxymethyl)tetrahydro-2H-pyran-2-yl)thio)propyl)propanamide]
Cytotoxicity IC10 (OVCAR3 [5]): 29970 nM | Cytotoxicity IC10 (HEK293 [6]): 8110 nM | Cytotoxicity IC10 (A549 [7]): 4220 nM | Cytotoxicity IC10 (MDA-MB-468 [8]): 6000 nM | Cytotoxicity IC10 (CaOV3 [9]): 5430 nM | Cytotoxicity IC10 (DLD-1 [10]): 42280 nM | Cytotoxicity IC10 (LP9 [11]): 18010 nM | Cytotoxicity IC10 (HH [12]): 14800 nM | IC90 (OVCAR3 [13]): 170 nM | IC90 (HEK293 [14]): 220 nM | IC90 (A549 [15]): 200 nM | IC90 (MDA-MB-468 [16]): 70 nM | IC90 (CaOV3 [17]): 50 nM | IC90 (DLD-1 [18]): 360 nM | IC90 (LP9 [19]): 40 nM | IC90 (HH [20]): 110 nM | Cellular Toxicity: Dark toxicity IC10 ([2]; human, 24 h): 20660 nM | Cytotoxicity IC10 ([2]; human, 24 h): 20660 nM | Singlet Oxygen Production (slope) 1O2 [3]: 2054.0 | IC90 ([4]; Homo sapiens, SK-OV-3, light or radiation study, SKOV3, ovarian clear cell (Table 2), read-out: Phototoxicity IC90): 110 nM | IC90 ([4]; Homo sapiens, SK-OV-3, light or radiation study, SKOV3, 24 h uptake, 652 nm laser 50 mW/cm2 5 mins (15 J/cm2), viability 24 h later, read-out: Cellular Toxicity: Phototoxicity IC90): 80 nM | IC90 ([4]; Homo sapiens, SK-OV-3, light or radiation study, SKOV3, read-out: Phototoxicity apparent IC90): < 100 nM

C=CC1=C(C)c2cc3nc(c(C)c4cc(C)c(cc5[nH]c(cc1n2)c(C)c5CC)[nH]4)[C@@H](CCC(=O)O)[C@@H]3C [Phyllochlorin free acid, phyllochlorin free acid]
Side effects (clinical signs of acute toxicity) [1]: No side effects were noted | pKa of the carboxylic acid [21]: less than 5 | Concentration at which cells remained >80% viable (dark toxicity) [2]: 10 µM | Concentration at which cells retained >80% viability (dark toxicity) [2]: up to 25 μM | Cellular Toxicity: Dark toxicity IC10 [2, 23]: 13810 nM | Solubility ([22]; 50 μM, 1% w/v PVP, absorbance as surrogate): remained soluble in aqueous solvent (without DMSO) | Absorbance maxima ([22]; aqueous solvent, single broad peak): 688±2 nm | Absorbance maxima ([22]; fully solubilized in organic solvent (75% DMSO and above)): 660±2 nm | Singlet Oxygen Production (slope) 1O2 [3]: 1335.5 | IC50 ([4]; absence of PVP): 63.1 nM and 60 nM | IC50 ([4]; with addition of PVP): 53.9 nM | IC90 [4, 24]: 290 nM | Times more potent as a phototoxic agent than chlorin e4 disodium salt ([4]; ovarian cancer cells, head to head, without PVP): ~75 times
